For the experiment, the target named is GR complex. Put plainly: [35S]TBPS binding assay (inhibition of [35S]TBPS binding, cerebral cortex P2 homogenate). Also on record: species or system rat. The settings on record: for IC50: 2 nM [35S]TBPS, rat cerebral cortex P2 homogenate; for IMAX: maximum inhibition of [35S]TBPS binding. How it is done:
We performed several experiments to determine the nature of the modulation of [^35S]TBPS as affected by the compounds of the invention.
These procedures were performed as follows:
Brains from male Sprague-Dawley rats were removed immediately following sacrifice and the cerebral cortices dissected over ice. […] Briefly, the cortices were gently homogenized in 0.32 M sucrose followed by centrifugation at 1000 x g for 10 minutes. The supernatant was collected and centrifuged at 9000 x g for 20 minutes. The resultant P2 pellet was suspended as a 10% (original wet weight/volume) suspension in 50 mM Na/K phosphate buffer (pH 7.4) 200 mM NaCl to form the homogenate.
One hundred microliter […] aliquots of the P2 homogenate (0.5 milligrams (mg) protein) were incubated with 2 nanomolar (nM) [^35S]TBPS (70-110 curies/millimole; New England Nuclear, Boston, MA) in the presence or absence of the naturally occurring steroids or their synthetic derivatives to be tested. The tested compounds were dissolved in dimethylsulfoxide (Baker Chem. Co., Phillipsbury, NJ) and added to the incubation mixture in 5 µL aliquots. The incubation mixture was brought to a final volume of 1 mL with buffer. Non-specific binding was defined as binding in the presence of […] TBPS. The effect and specificity of GABA (Sigma Chem. Co., St. Louis, MO) was evaluated by performing all assays in the presence of GABA plus (+)bicuculline (Sigma Chem. Co.). maintained at 25°C for 90 minutes (steady state conditions) were terminated by rapid filtration through glass fiber filters (No. 32, Schleicher and Schuell, Keene, NH). Filter-bound radioactivity was quantitated by liquid scintillation spectrophotometry.
Various compounds were screened to determine their potential as modulators of [^35S]TBPS binding in vitro. These assays were performed in accordance with the above discussed procedures. […] It is an indication of a compound's in vitro potency. Maximum inhibition is an indication of a compound's in vitro efficacy.

The mark [1] stands for this setting: listed as 3α-Hydroxy-3β-(3'-hydroxyphenyl)-ethynyl-5β-pregnan-20-one.

Usually IC50 stands for the concentration needed to halve the response being measured. Low readings indicate inhibition by little substance, high ones a need for much substance. Regarding `C[C@]12CC[C@H]3[C@@H](CC[C@@H]4C[C@@](O)(C#CCCO)CC[C@@H]43)[C@@H]1CC[C@@H]2C(=O)Cn1ccnn1` [3α-hydroxy-3β-(4-hydroxybutyn-1-yl)-21-(1H-1,2,3-triazol-1-yl)-5β-19-norpregnan-20-one], the concentration for half-maximal inhibition (IC50) was determined as 124 nM and the IMAX is 95%.

The compound `C[C@]12CC[C@H]3[C@@H](CC[C@@H]4C[C@@](O)(C#CCCO)CC[C@@H]43)[C@@H]1CC[C@@H]2C(=O)Cn1nccn1` [3α-hydroxy-3β-(4-hydroxybutyn-1-yl)-21-(2H-1,2,3-triazol-2-yl)-5β-19-norpregnan-20-one] registered an IC50 of 56 nM and an IMAX of 93%.

The compound `C[C@]12CC[C@](O)(C#CCCO)C[C@H]1CC[C@@H]1[C@@H]2CC[C@]2(C)[C@@H](C(=O)Cn3cnnn3)CC[C@@H]12` [3α-hydroxy-3β-(4-hydroxybutyn-1-yl)-21-(tetrazol-1-yl)-5β-pregnan-20-one] yielded a half-inhibitory concentration (IC50) of 93 nM and an IMAX of 101%.

`CC1(O)CCC2(C)C(CCC3C2CCC2(C)C(C(=O)Cn4nccn4)CCC32)C1` (stereo not drawn) [3α-hydroxy-3β-methyl-21(2'H-1',2',3'-triazol-2'-yl)-5α-pregnan-20-one] returned a 50% inhibitory concentration (IC50) of 85 nM and an IMAX of 99%.

For `C[C@@]1(O)CC[C@@]2(C)[C@@H](CC[C@@H]3[C@@H]2CC[C@]2(C)[C@@H](C(=O)Cn4ccnn4)CC[C@@H]32)C1` [3α-hydroxy-3β-methyl-21-(1',2',3'-triazol-1'-yl)-5α-pregnan-20-one], the half-inhibitory concentration (IC50) is 136 nM and the IMAX was determined as 99%.

Take `CC(=O)[C@H]1CC[C@H]2[C@@H]3CC[C@@H]4C[C@@](O)(C#Cc5ccccc5)CC[C@]4(C)[C@H]3CC[C@]12C` [3α-hydroxy-3β-phenylethynyl-5β-pregnan-20-one]: the concentration for half-maximal inhibition (IC50) amounted to 98 nM and the IMAX amounted to 101%.

`CC12CCC(O)CC1CCC1C2CCC2(C)C(C(=O)Cn3cnc4ccccc43)CCC12` (stereo not drawn) [3α-hydroxy-21-(1'-benzimidazolyl)5β-pregnan-20-one] had an IC50 of 53 nM and an IMAX of 100%.

The compound `C[C@]12CC[C@@H](O)C[C@@H]1CC[C@@H]1[C@@H]2CC[C@]2(C)[C@@H](C(=O)Cn3ccnc3)CC[C@@H]12` [3α-hydroxy-21-(1'-imidazolyl)-5α-pregnan-20-one] had an IC50 of 71 nM and an IMAX of 99%.

In turn, `C[C@]12CC[C@@H](O)C[C@@H]1CC[C@@H]1[C@@H]2CC[C@]2(C)[C@@H](C(=O)Cn3cccn3)CC[C@@H]12` [3α-hydroxy-21-(1'-pyrazolyl)-5α-pregnan-20-one] had an IC50 of 100 nM and an IMAX of 98%.

In turn, `C[C@]12CC[C@@H](O)C[C@H]1CC[C@@H]1[C@@H]2CC[C@]2(C)[C@@H](C(=O)Cn3cnnn3)CC[C@@H]12` [3α-hydroxy-21-(1'H-1,2,3,4-tetrazol-1'-yl)-5β-pregnan-20-one] came in with a half-inhibitory concentration (IC50) of 227 nM and an IMAX of 60%.

`C[C@]12CC[C@@H](O)C[C@H]1CC[C@@H]1[C@@H]2CC[C@]2(C)[C@@H](C(=O)Cn3cnc4ncncc43)CC[C@@H]12` [3α-hydroxy-21-(7'H-purin-7'-yl)-5β-pregnan-20-one] came in with an IC50 of 430 nM and an IMAX of 71%.

`C[C@]12CC[C@@H](O)C[C@H]1CC[C@@H]1[C@@H]2CC[C@]2(C)[C@@H](C(=O)Cn3cnc4cncnc43)CC[C@@H]12` [3α-hydroxy-21-(9'H-purin-9'-yl-5β-pregnan-20-one] came in with an IC50 of 69 nM and an IMAX of 59%.

`CC12CCC(O)CC1CCC1C2CCC2(C)C(C(=O)Cn3ccnc3C=O)CCC12` (stereo not drawn) [3α-hydroxy-21-[1H-(2'-formyl)imidazol-1-yl]-5-pregnan-20-one] returned a half-maximal inhibitory concentration (IC50) of 213 nM and an IMAX of 81%.

`Cc1nccn1CC(=O)[C@H]1CC[C@H]2[C@@H]3CC[C@@H]4C[C@H](O)CC[C@]4(C)[C@H]3CC[C@]12C` [3α-hydroxy-21-[1H-(2-methyl)imidazol-1-yl)-5β-pregnan-20-one] returned a half-inhibitory concentration (IC50) of 222 nM and an IMAX of 95%.

For the compound `CC(=O)[C@H]1CC[C@H]2[C@@H]3CC[C@@H]4C[C@@](O)(C#Cc5ccc(F)cc5F)CC[C@]4(C)[C@H]3CC[C@]12C` [3β-(2', 4'-difluorophenylethynyl)-3α-hydroxy-5β-pregnan-20-one], the half-inhibitory concentration (IC50) is 109 nM and the IMAX came to 102%.

With `CC(=O)[C@H]1CC[C@H]2[C@@H]3CC[C@@H]4C[C@@](O)(CCc5ccccc5O)CC[C@]4(C)[C@H]3CC[C@]12C` [3β-(2'-Hydroxyphenyl)ethyl-3α-hydroxy-5β-pregnan-20-one], the half-inhibitory concentration (IC50) is 101 nM and the IMAX was 83%.

Consider `COc1ccc(CC[C@@]2(O)CC[C@@]3(C)[C@H](CC[C@@H]4[C@@H]3CC[C@]3(C)[C@@H](C(C)=O)CC[C@@H]43)C2)cc1OC` [3β-(3',4'-Dimethoxyphenylethyl)-3α-hydroxy-5β-pregnan-20-one], for which the half-inhibitory concentration (IC50) was determined as 507 nM and the IMAX was 66%.

`COc1ccc(C#CC2(O)CCC3(C)C(CCC4C3CCC3(C)C(C(C)=O)CCC43)C2)cc1OC` (stereo not drawn) [3β-(3',4'-Dimethoxyphenylethynyl)-3α-hydroxy-5β-pregnan-20-one] had an IMAX of 106%.

`CC(=O)c1cccc(C#C[C@@]2(O)CC[C@@]3(C)[C@H](CC[C@@H]4[C@@H]3CC[C@]3(C)[C@@H](C(C)=O)CC[C@@H]43)C2)c1` [3β-(3'-Acetylphenylethynyl)-3α-hydroxy-5β-pregnan-20-one] had an IC50 of 62 nM and an IMAX of 100%.

Compound `CC(=O)OCC#C[C@@]1(O)CC[C@@]2(C)[C@H](CC[C@@H]3[C@@H]2CC[C@]2(C)[C@@H](C(C)=O)CC[C@@H]32)C1` [3β-(3'-acetoxy-1'-propynyl)-3α-hydroxy-5β-pregnan-20-one] gave an IMAX of 104%.

In turn, `CC(=O)[C@H]1CC[C@H]2[C@@H]3CC[C@@H]4C[C@@](O)(C#CCO)CC[C@]4(C)[C@H]3CC[C@]12C` [3β-(3'-hydroxy-1'-propynyl)-3α-hydroxy-5β-pregnan-20-one] had a half-inhibitory concentration (IC50) of 137 nM and an IMAX of 93%.

`CC(=O)[C@H]1CC[C@H]2[C@@H]3CC[C@@H]4C[C@@](O)(C#Cc5cccc(O)c5)CC[C@]4(C)[C@H]3CC[C@]12C` [3β-(3'-hydroxyphenylethynyl)-3α-hydroxy-5β-pregnan-20-one] gave an IC50 of 407 nM and an IMAX of 99%. Under setting [1], this compound showed a 50% inhibitory concentration (IC50) of 619 nM and an IMAX of 98%.

`CC(=O)OCCC#CC1(O)CCC2(C)C(CCC3C2CCC2(C)C(C(C)=O)CCC32)C1` (stereo not drawn) [3β-(4'-Acetoxy-1'-butynyl)-3α-hydroxy-5β-pregnan-20-one] showed a half-maximal inhibitory concentration (IC50) of 20 nM and an IMAX of 96%.

Compound `CC(=O)Oc1ccc(C#C[C@@]2(O)CC[C@@]3(C)[C@H](CC[C@@H]4[C@@H]3CC[C@]3(C)[C@@H](C(C)=O)CC[C@@H]43)C2)cc1` [3β-(4'-Acetoxyphenylethynyl)-3α-hydroxy-5β-pregnan-20-one] gave an IC50 of 1430 nM and an IMAX of 100%.

Compound `CC(=O)c1ccc(C#CC2(O)CCC3C(CCC4C3CCC3(C)C(C(C)=O)CCC43)C2)cc1` (stereo not drawn) [3β-(4'-Acetylphenyl)ethynyl-3α-hydroxy-5β-19-norpregnan-20-o] [3β-(4'-Acetylphenylethynyl)-3α-hydroxy-19-nor-5β-pregnan-20-one] had an IC50 of 6 nM and an IMAX of 90%.

Take `CC(=O)c1ccc(C#CC2(O)CCC3C(CCC4C3CCC3(C)C(C(C)=O)CCC43)C2)cc1` (stereo not drawn) [3β-(4'-Acetylphenyl)ethynyl-3α-hydroxy-19-nor-20-one]: the IC50 stood at 14 nM and the IMAX is reported as 103%.

For `CC(=O)c1ccc(C#C[C@@]2(O)CC[C@@]3(C)[C@@H](CC[C@@H]4[C@@H]3CC[C@]3(C)[C@@H](C(C)=O)CC[C@@H]43)C2)cc1` [3β-(4'-Acetylphenylethynyl)-3α-hydroxy-5α-pregnan-20-one], the IC50 was found to be 5 nM and the IMAX is reported as 93%.

`CC(=O)[C@H]1CC[C@H]2[C@@H]3CC[C@@H]4C[C@@](O)(C#CCCC(N)=O)CC[C@]4(C)[C@H]3CC[C@]12C` [3β-(4'-Carboxamidobutynyl)-3α-hydroxy-5β-pregnan-20-one] had a concentration for half-maximal inhibition (IC50) of 2340 nM and an IMAX of 102%.

Compound `CC(=O)[C@H]1CC[C@H]2[C@@H]3CC[C@@H]4C[C@@](O)(C#Cc5ccc(C(N)=O)cc5)CC[C@]4(C)[C@H]3CC[C@]12C` [3β-(4'-Carboxamidopheny)ethynyl-3α-hydroxy-5β-pregnan-20-one] yielded a half-maximal inhibitory concentration (IC50) of 2240 nM and an IMAX of 98%.

For the origin of these results see patent EP1038880B1, “Androstanes and pregnanes for allosteric modulation of GABA receptor” (priority 1994, dated 1995).
